Results: patent US11051515B2, “3-acyl-benzamides and their use as herbicides” (Bayer Aktiengesellschaft, priority 2017, dated 2021)

How the values were obtained:
ALOMY [1] = assay: Pre-emergence action against ALOMY; type: in vivo, Alopecurus myosuroides; conditions: for Pre-emergence action against ALOMY (herbicidal activity in percent): dosage 320 g/ha, scored visually after 3 weeks vs untreated controls, 100% = plants have died, 0% = like control plants
Method in brief: (§1)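 Seeds sown in sandy loam in wood-fiber pots and covered with soil. Greenhouse growth; visual damage scored after 3 weeks versus untreated controls (100% = dead, 0% = like control).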

CYPES [2] = assay: Pre-emergence action against CYPES; type: in vivo, Cyperus esculentus; conditions: for Herbicidal efficacy against CYPES: 80 g of a.i./ha; for Pre-emergence action against CYPES (herbicidal activity): dosage 320 g/ha, scored visually after 3 weeks vs untreated controls
Method in brief: as §1

ECHCG [3] = assay: Pre-emergence action against ECHCG; type: in vivo, Echinochloa crus-galli; conditions: pre-emergence, dosage 320 g/ha, scored visually after 3 weeks vs untreated controls
Method in brief: as §1

SETVI [4] = assay: Pre-emergence action against SETVI; type: in vivo, Setaria viridis; conditions: for SETVI (Table B8, pre-emergence herbicidal activity): dosage 320 g/ha, scored visually after 3 weeks vs untreated controls
Method in brief: as §1

ABUTH [5] = assay: Pre-emergence action against ABUTH; type: in vivo, Abutilon theophrasti; conditions: pre-emergence, dosage 320 g/ha, scored visually after 3 weeks vs untreated controls
Method in brief: as §1

AMARE [6] = assay: Pre-emergence action against AMARE; type: in vivo, Amaranthus retroflexus; conditions: pre-emergence, dosage 320 g/ha, scored visually after 3 weeks vs untreated controls
Method in brief: as §1

MATIN [7] = assay: Pre-emergence action against MATIN; type: in vivo, Matricaria inodora; conditions: for Pre-emergence action against MATIN: Dosage 320 g/ha
Method in brief: as §1

POLCO [8] = assay: Pre-emergence action against POLCO; type: in vivo, Polygonum convolvulus; conditions: Dosage 320 g/ha, pre-emergence
Method in brief: as §1

STEME [9] = assay: Pre-emergence action against STEME; type: in vivo, Stellaria media; conditions: for Pre-emergence action against STEME: Dosage 320 g/ha
Method in brief: as §1

VIOTR [10] = assay: Pre-emergence action against VIOTR; type: in vivo, Viola tricolor; conditions: for Pre-emergence action against VIOTR: Dosage 320 g/ha
Method in brief: as §1

VERPE [11] = assay: Pre-emergence action against VERPE; type: in vivo, Veronica persica; conditions: Dosage 320 g/ha, pre-emergence
Method in brief: as §1

AVEFA [12] = assay: Post-emergence action against AVEFA; type: in vivo, Avena fatua; conditions: post-emergence, dosage 80 g/ha, visual assessment about 3 weeks after treatment vs untreated controls
Method: (§2) Seeds of monocotyledonous and dicotyledonous weed and crop plants are laid out in sandy loam soil in wood-fiber pots, covered with soil and cultivated in a greenhouse under good growth conditions. 2 to 3 weeks after sowing, the test plants are treated at the one-leaf stage. The compounds of the invention, formulated in the form of wettable powders (WP) or as emulsion concentrates (EC), are then sprayed onto the green parts of the plants in the form of an aqueous suspension or emulsion at a water application rate equating to […], with addition of 0.2% wetting agent. After the test plants have been left to stand in the greenhouse under optimal growth conditions for about 3 weeks, the action of the preparations is assessed visually in comparison to untreated controls (herbicidal action in percent (%): 100% activity=the plants have died, 0% activity=like control plants). […] At the same time, inventive compounds leave Gramineae crops such as barley, wheat, rye, millet/Sorghum, corn or rice virtually undamaged when applied post-emergence, even at high active ingredient dosages. In addition, some substances are also harmless to dicotyledonous crops such as soya, cotton, oilseed rape, sugar beet or potatoes. Some of the compounds according to the invention have high selectivity and are therefore suitable for controlling unwanted vegetation in agricultural crops by the post-emergence method. The data of Tables B18 to B34 below illustrate, in an exemplary manner, the […] herbicidal action of the compounds according to the invention, the herbicidal activity being stated in percent.

ECHCG [13] = assay: Post-emergence action against ECHCG; type: in vivo, Echinochloa crus-galli; conditions: post-emergence, dosage 80 g/ha, visual assessment about 3 weeks after treatment vs untreated controls
Method in brief: (§3)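 Weeds grown in sandy loam in greenhouse, treated at one-leaf stage (2–3 weeks after sowing) with WP or EC formulations sprayed as aqueous suspension/emulsion at 600 to […] water with 0.2% wetting agent. Visual rating after about 3 weeks versus untreated controls, as % herbicidal action (100% = plants dead, 0% = like control).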

SETVI [14] = assay: Post-emergence action against SETVI; type: in vivo, Setaria viridis; conditions: for Post-emergence action against SETVI (herbicidal action in percent): dosage 80 g/ha, visual assessment about 3 weeks after treatment vs untreated controls
Method in brief: as §3

ABUTH [15] = assay: Post-emergence action against ABUTH; type: in vivo, Abutilon theophrasti; conditions: for Post-emergence action against ABUTH (herbicidal action in percent): dosage 80 g/ha, visual assessment about 3 weeks after treatment vs untreated controls
Method in brief: as §3

AMARE [16] = assay: Post-emergence action against AMARE; type: in vivo, Amaranthus retroflexus; conditions: for Post-emergence action against AMARE (herbicidal action in percent): dosage 80 g/ha, visual assessment about 3 weeks after treatment vs untreated controls
Method in brief: as §3

MATIN [17] = assay: Post-emergence action against MATIN; type: in vivo, Matricaria inodora; conditions: for Post-emergence action against MATIN (herbicidal action in percent): dosage 80 g/ha, visual assessment about 3 weeks after treatment vs untreated controls
Method in brief: as §3

PHBPU [18] = assay: Post-emergence action against PHBPU; type: in vivo, Pharbitis purpurea; conditions: post-emergence, dosage 80 g/ha
Method in brief: as §3

POLCO [19] = assay: Post-emergence action against POLCO; type: in vivo, Polygonum convolvulus; conditions: post-emergence, dosage 80 g/ha
Method: as §2

STEME [20] = assay: Post-emergence action against STEME; type: in vivo, Stellaria media; conditions: for Post-emergence action against STEME: dosage 80 g/ha
Method in brief: as §3

VIOTR [21] = assay: Post-emergence action against VIOTR; type: in vivo, Viola tricolor; conditions: for Post-emergence action against VIOTR: dosage 80 g/ha
Method in brief: as §3

VERPE [22] = assay: Post-emergence action against VERPE; type: in vivo, Veronica persica; conditions: dosage 80 g/ha
Method in brief: as §3

ALOMY [23] = assay: Post-emergence action against ALOMY; type: in vivo, Alopecurus myosuroides; conditions: Dosage 80 g/ha, post-emergence
Method: as §2

AVEFA [24] = assay: Pre-emergence action against AVEFA; type: in vivo, Avena fatua; conditions: dosage 320 g/ha, scored visually after 3 weeks vs untreated controls
Method in brief: as §1

PHBPU [25] = assay: Pre-emergence action against PHBPU; type: in vivo, Pharbitis purpurea; conditions: Dosage 320 g/ha, pre-emergence
Method in brief: as §1

CYPES [26] = assay: Post-emergence action against CYPES; type: in vivo, Cyperus esculentus; conditions: post-emergence, dosage 80 g/ha, visual assessment about 3 weeks after treatment vs untreated controls
Method in brief: as §3

[27] = Table V10, pre-emergence, 80 g of a.i./ha
[28] = Table V19, post-emergence, 5 g of a.i./ha
[29] = Table V21, post-emergence, 5 g of a.i./ha
[30] = Table V17, post-emergence, 5 g of a.i./ha

| SMILES | Pre-emergence action against CYPES (herbicidal activity) (CYPES [2]) | Pre-emergence action against ECHCG (herbicidal activity) (ECHCG [3]) | SETVI (Table B8, pre-emergence herbicidal activity) (SETVI [4]) | Pre-emergence action against ABUTH (herbicidal activity) (ABUTH [5]) | Pre-emergence action against AMARE (herbicidal activity) (AMARE [6]) | Pre-emergence action against MATIN (MATIN [7]) | Pre-emergence action against POLCO (POLCO [8]) | Pre-emergence action against STEME (STEME [9]) | Pre-emergence action against VIOTR (VIOTR [10]) | Pre-emergence action against VERPE (VERPE [11]) | Post-emergence action against AVEFA (herbicidal action in percent) (AVEFA [12]) | Post-emergence action against ECHCG (herbicidal action in percent) (ECHCG [13]) | Post-emergence action against SETVI (herbicidal action in percent) (SETVI [14]) | Post-emergence action against ABUTH (herbicidal action in percent) (ABUTH [15]) | Post-emergence action against AMARE (herbicidal action in percent) (AMARE [16]) | Post-emergence action against MATIN (herbicidal action in percent) (MATIN [17]) | Post-emergence action against PHBPU (PHBPU [18]) | Post-emergence action against POLCO (POLCO [19]) | Post-emergence action against STEME (STEME [20]) | Post-emergence action against VIOTR (VIOTR [21]) | further results |
| --- | --- | --- | --- | --- | --- | --- | --- | --- | --- | --- | --- | --- | --- | --- | --- | --- | --- | --- | --- | --- | --- |
| CCn1nnnc1NC(=O)c1ccc(S(C)(=O)=O)c(C(C)=O)c1C [2-7] | 100% | 100% | 100% | 100% | 100% | 100% | 90% | 90% | 100% | 100% | 100% | 100% | 100% | 100% | 100% | 100% | 80 | 100 | 100 | 100 | Herbicidal efficacy against ALOMY (ALOMY [1]; [27]): 70; Pre-emergence action against ALOMY (herbicidal activity in percent) (ALOMY [1]): 80%; Herbicidal efficacy against CYPES (CYPES [2]; Table V10, pre-emergence): 90; Herbicidal efficacy against CYPES (CYPES [2]; Table V11, pre-emergence): 90; Herbicidal efficacy against SETVI (SETVI [4]; [27]): 80; Herbicidal efficacy against MATIN (MATIN [7]; [27]): 100; Herbicidal efficacy against STEME (STEME [9]; [27]): 90; Herbicidal efficacy against VIOTR (VIOTR [10]; Table V12, pre-emergence, 20 g of a.i./ha): 90; SETVI (SETVI [14]; [28]): 90; ABUTH (ABUTH [15]; [28]): 100; Herbicidal efficacy against ABUTH (ABUTH [15]; [29]): 100; Herbicidal efficacy against AMARE (AMARE [16]; [29]): 100; Herbicidal efficacy against MATIN (MATIN [17]; [30]): 100; MATIN (MATIN [17]; [28]): 100; STEME (STEME [20]; [28]): 100; Herbicidal efficacy against STEME (STEME [20]; [29]): 100; Herbicidal efficacy against VIOTR (VIOTR [21]; [30]): 100; VIOTR (VIOTR [21]; [28]): 100; Post-emergence action against VERPE (VERPE [22]): 100 |
| CCn1nnnc1NC(=O)c1ccc(C(F)(F)F)c(C(=O)CCl)c1Cl [2-145] | 100% | 90% | 100% | 100% | 100% | 100% | 90% | 100% | 100% | 100% | – | 100% | 100% | 100% | 100% | – | 100 | 80 | 100 | 100 | Post-emergence action against ALOMY (ALOMY [23]): 80% |
| CCCn1nnnc1NC(=O)c1ccc(S(C)(=O)=O)c(C(C)=O)c1C [3-7] | 100% | 100% | 100% | 100% | 100% | 100% | 90% | 90% | 100% | 100% | 100% | 100% | 100% | 100% | 100% | 100% | 90 | 80 | 100 | 100 | Pre-emergence action against ALOMY (herbicidal activity in percent) (ALOMY [1]): 80%; Pre-emergence action against AVEFA (herbicidal activity) (AVEFA [24]): 90%; Pre-emergence action against PHBPU (PHBPU [25]): 90%; Post-emergence action against CYPES (herbicidal action in percent) (CYPES [26]): 80%; Post-emergence action against VERPE (VERPE [22]): 100 |
| CCCn1nnnc1NC(=O)c1ccc(SC)c(C(=O)C2CC2)c1Cl [3-123] | 80% | 90% | 100% | 100% | 100% | 100% | 80% | 90% | 100% | 100% | 100% | 100% | 90% | 80% | 100% | 100% | 90 | 90 | 100 | 100 | Pre-emergence action against AVEFA (herbicidal activity) (AVEFA [24]): 100%; Post-emergence action against VERPE (VERPE [22]): 100 |
